The values that follow are results of earlier work, collected in US20200093158A1, “COMPOSITIONS AND COMBINATIONS FOR USE AS FOOD SUPPLEMENTS FOR ANIMALS” (OmniGen Research, LLC, priority 2014, published 2020).

Data set [1] concerns turbot (Scophthalmus maximus) juveniles.
In the next data set the test system is larvae of common carp. The following applies: 1.76 parts per million of NH3, after 24 hours.
For data set [2] the following is noted: 71.5 parts per million in diet for 8 weeks; 72 hours ammonia at 0.02, 0.2, 2 ppm (not at 20 ppm); vs control shrimp.

On to `N` [NH3, ammonia], for which, in data set [1] (adapted small turbot, up to 0.4-0.5 parts per million), the physiological disturbances entry is on record as “no major physiological disturbances”. The mortalities entry in data set [1] (turbot juveniles, 4-6 weeks, up to 0.4 parts per million unionized ammonia, 16.5-17.5° C., pH 7.92-8.03) was “no mortalities”. Also, the mortality – broadly, the percentage killed – in the data set on larvae of common carp is reported as 50%.

Take `CC1=C(/C=C/C(C)=C/C=C/C(C)=C/C=C/C=C(C)/C=C/C=C(C)/C=C/C2=C(C)C(=O)[C@@H](O)CC2(C)C)C(C)(C)C[C@H](O)C1=O` [astaxanthin]: the “survival rates under ammonia exposure” value in data set [2] is recorded as “higher”.
